ChEMBL document CHEMBL1130823, “New tetrahydronaphthalene derivatives as combined thromboxane receptor antagonists and thromboxane synthase inhibitors” (Bioorg Med Chem Lett, 1998)

Assays:
[1] = organism: Oryctolagus cuniculus; test: Inhibition of U-46,619 induced contraction of isolated rabbit saphenous vein.; format: functional; conditions: read-out: pA2 (converted)
[2] = target: T1, Thromboxane-A synthase (Homo sapiens, UniProt P24557); test: Anti-synthetase activity against TXA2 synthase in human whole blood assay; format: tissue-based
T1 sequence (P24557 whole entry): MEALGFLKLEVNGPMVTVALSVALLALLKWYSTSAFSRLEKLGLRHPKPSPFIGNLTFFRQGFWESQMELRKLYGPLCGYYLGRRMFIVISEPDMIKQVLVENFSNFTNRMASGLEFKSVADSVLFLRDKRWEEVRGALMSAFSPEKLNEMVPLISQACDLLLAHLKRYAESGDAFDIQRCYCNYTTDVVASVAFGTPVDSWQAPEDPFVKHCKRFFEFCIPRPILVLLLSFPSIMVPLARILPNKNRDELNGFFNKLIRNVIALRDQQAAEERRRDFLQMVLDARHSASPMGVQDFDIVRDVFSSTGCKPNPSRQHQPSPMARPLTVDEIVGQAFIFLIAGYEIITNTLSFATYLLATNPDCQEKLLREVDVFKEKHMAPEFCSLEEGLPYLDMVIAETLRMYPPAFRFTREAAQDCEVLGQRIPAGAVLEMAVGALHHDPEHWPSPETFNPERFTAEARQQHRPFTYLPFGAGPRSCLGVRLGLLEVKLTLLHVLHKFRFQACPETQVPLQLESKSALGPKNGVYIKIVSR

[3] = organism: Homo sapiens; test: Inhibitory concentration required for the inhibition of U-46,619 induced aggregation of human platelets.; format: functional

Row | Compound | IC50 [2] | IC50 [3] | Kb [1]
1 | O=C(O)CC/C=C/c1cc(Cc2cccnc2)cc2c1CCC(NS(=O)(=O)c1ccc(Cl)cc1)C2 (stereo not drawn) | > 10000 nM | 9 nM | 0.398 nM
2 | Cc1c(Cc2cccnc2)cc2c(c1/C=C/CCCC(=O)O)CCC(NS(=O)(=O)c1ccc(Cl)cc1)C2 (stereo not drawn) | 2900 nM | 460 nM | 7.94 nM
3 | O=C(O)CCc1cc(-c2cccnc2)cc2c1CCC(NS(=O)(=O)c1ccc(Cl)cc1)C2 (stereo not drawn) | > 5000 nM | 670 nM | 12.6 nM
4 | O=C(O)CCC/C=C/c1cc(Cc2cccnc2)cc2c1CCC(NS(=O)(=O)c1ccc(Cl)cc1)C2 (stereo not drawn) | > 5000 nM | 1200 nM | 2 nM
5 | O=C(O)CCC/C=C\c1cc(Cc2cccnc2)cc2c1CCC(NS(=O)(=O)c1ccc(Cl)cc1)C2 (stereo not drawn) | 4200 nM | 90 nM | 2.51 nM
6 | CCCCCc1c(Cc2cccnc2)cc2c(c1CCC(=O)O)CCC(NS(=O)(=O)c1ccc(Cl)cc1)C2 (stereo not drawn) | 6600 nM | 270 nM | 1.58 nM
7 | Cc1c(Cc2cccnc2)cc2c(c1/C=C\CCCC(=O)O)CCC(NS(=O)(=O)c1ccc(Cl)cc1)C2 (stereo not drawn) | 960 nM | 1000 nM | 10 nM

Further lines, with some results ahead:

Row | IC50 [2] | IC50 [3] | Compound | Kb [1]
8 | 850 nM | 610 nM | Cc1c(Cc2cccnc2)cc2c(c1CCC(=O)O)CCC(NS(=O)(=O)c1ccc(Cl)cc1)C2 (stereo not drawn) | 158 nM
9 | 350 nM | 160 nM | O=C(O)CCC/C=C\c1c(Cc2cccnc2)ccc2c1CCC(NS(=O)(=O)c1ccc(Cl)cc1)C2 (stereo not drawn) | 0.2 nM
10 | 1100 nM | 7 nM | O=C(O)CCc1cc(Cc2cccnc2)cc2c1CCC(NS(=O)(=O)c1ccc(Cl)cc1)C2 (stereo not drawn) | 0.2 nM
11 | 1100 nM | 450 nM | O=C(O)CCC/C=C/c1c(Cc2cccnc2)ccc2c1CCC(NS(=O)(=O)c1ccc(Cl)cc1)C2 (stereo not drawn) | 1.26 nM
12 | 640 nM | 63 nM | CCCc1c(Cc2cccnc2)cc2c(c1CCC(=O)O)CCC(NS(=O)(=O)c1ccc(Cl)cc1)C2 (stereo not drawn) | 3.98 nM
13 | > 10000 nM | 20 nM | O=C(O)CCc1c(Cc2cccnc2)ccc2c1CCC(NS(=O)(=O)c1ccc(Cl)cc1)C2 (stereo not drawn) | 0.316 nM
14 | 1400 nM | 47 nM | O=C(O)CC/C=C/c1c(Cc2cccnc2)ccc2c1CCC(NS(=O)(=O)c1ccc(Cl)cc1)C2 (stereo not drawn) | 0.00794 nM
15 | > 10000 nM | 140 nM | O=C(O)CCc1c(-c2cccnc2)ccc2c1CCC(NS(=O)(=O)c1ccc(Cl)cc1)C2 (stereo not drawn) | 0.2 nM
16 | > 10000 nM | 180 nM | O=C(O)CCc1c2c(cc(Cc3cccnc3)c1-c1ccccc1)CC(NS(=O)(=O)c1ccc(Cl)cc1)CC2 (stereo not drawn) | 0.794 nM
